Laboratory results published in PMC3419223, “Transient Receptor Potential Ankyrin 1 Channel Localized to Non-Neuronal Airway Cells Promotes Non-Neurogenic Inflammation” (PLoS ONE, 2012).
pEC50: −log10 of the molar value. Ends that are not written are not given here.

What was measured:
[1] = tested on: C57BL/6 mouse trachea and bronchi; test: Plasma protein extravasation (Evans blue dye) after intratracheal instillation; format: in vivo; conditions: C57BL/6 mice; for effect on SP (25 nM)- and capsaicin (100 µM)-evoked Evans blue dye extravasation (PPE) / effect on acrolein (5 mM, i.t.)- and CSE (1 OD, i.t.)-evoked increase in PPE: L-733,060 2 µmol/kg i.v.; for effect on SP (25 nM)- and capsaicin (100 µM)-evoked Evans blue dye extravasation (PPE): capsazepine 30 mg/kg i.p., HC-030031 300 mg/kg i.g.; for plasma protein extravasation (PPE) after instillation into the tracheal lumen: i.t. 30 µl, acrolein 5 mM, CSE 1 OD, capsaicin 100 µM, SP 25 nM; for effect on acrolein (5 mM, i.t.)- and CSE (1 OD, i.t.)-evoked increase in PPE: CPZ 30 mg/kg i.p., HC 300 mg/kg i.g.
Description: (§1) To defunctionalize/desensitize TRPV1 expressing primary sensory neurons, resiniferatoxin (RTX) was administered to C57BL/6 mice, as previously described, [40]. Briefly, mice were treated subcutaneously (s.c.) with a single injection of RTX (50 µg/kg) or its vehicle (10% ethanol and 10% tween 80 in isotonic saline) into the scruff of the neck under a light ether anesthesia to avoid unnecessary pain. Experiments were carried out 7 days after RTX treatment when responses to both TRPV1 and TRPA1 agonists in the treated mice were abolished, [40].
Anesthetized (sodium pentobarbital, 50 mg/kg i.p.) C57BL/6 mice received Evans blue dye (30 mg/kg i.v.), 1 min before intratracheal (i.t) instillation (30 µl) of acrolein (5 mM), capsaicin (100 µM), SP (25 nM), CSE (1 OD) or their vehicles (isotonic saline, 1% ethanol in isotonic saline and isotonic saline). […] The tachykinin NK1 receptor antagonist, L-733,060 (2 µmol/kg i.v.; Tocris) or its vehicle were administered 15 min before the stimulus. The TRPV1 selective antagonist, capsazepine, (30 mg/kg i.p.) or its vehicle (2.5% DMSO in isotonic saline) and intragastric (i.g.) TRPA1 selective antagonist, HC-030031 (300 mg/kg i.g.) or its vehicle were administered 30 and 60 min before the stimulus, respectively. In another set of experiments ACR (5 mM, i.t.), or its vehicle, has been administered in C57BL/6 mice desensitized to RTX (50 µg/kg; s.c.). Animals were euthanized 15 min after treatment and transcardially perfused with 0.9% isotonic saline solution. The extravasated dye was extracted from mouse trachea and bronchi by overnight incubation in formamide and assayed by spectrophotometry at 620 nm, as reported previously.

TRPV1 = test: Calcium imaging, response to the TRPV1 agonist capsaicin in human airway/lung cells; format: cell-based; conditions: 1 µM; SAEC, A549, NHLF, IMR90 and HBSMC; data not shown
[2] = tested on: C57BL/6 mice, Trpa1+/+ or Trpa1-/- mice; test: KC (CXCL-1) release in bronchoalveolar lavage fluid, ELISA; format: in vivo, mouse; conditions: for KC in BAL 24 hours after intratracheal instillation: i.t. 30 µl, acrolein 5 mM, CSE 1 OD, capsaicin 100 µM, SP 25 nM; for effect of pretreatment on KC release evoked by acrolein or CSE: HC-030031 300 mg/kg i.g., L-733,060 2 µmol/kg i.v.
Description: as §1
Trpa1^+/+ or Trpa1^−/− B6129P mice (5 per group) were exposed acutely to the cigarette smoke (CS) produced with commercial cigarettes (Marlboro Red, 12 mg of tar, 0.9 mg of nicotine each), by using a “nose-only” exposure unit. The smoke produced by cigarette burning was introduced into the exposure chamber (inner volume = 11.61 l) with the airflow generated by a mechanical ventilator (7025 Rodent Ventilator, Ugo Basile) at a rate of 250 ml/min [58]. A second mechanical ventilator was used to provide room air for dilution (1∶8) of the smoke stream. Mice were exposed to the smoke of 5 cigarettes per exposure period, twice daily, for 3 consecutive days, and sacrificed 24 hours later. Genotype-, age-, strain- and sex-matched control animals were exposed to air only in the same manner for the same duration of time. Anesthetized C57BL/6, and Trpa1^+/+ or Trpa1^−/− (C57BL/6) mice were intratracheally administered with (30 µl) acrolein (5 mM), capsaicin (100 µM), SP (25 nM) and CSE (1 OD) or their vehicles (isotonic saline, 1% ethanol in isotonic saline and isotonic saline) and sacrificed 24 hours later. The NK1 receptor antagonist, L-733,060 (2 µmol/kg i.v.; Tocris) or its vehicle (isotonic saline) were administered 15 min before the stimulus, and i.g. HC-030031 (300 mg/kg) or its vehicle (0.5% CMC in isotonic saline 0.9%) were administered 1 hour before the stimulus. In another set of experiments ACR (5 mM, i.t.), or its vehicle, has been administered in C57BL/6 mice desensitized to RTX (50 µg/kg; s.c.). Animals were sacrificed 24 hours after the last exposure/treatment with an overdose of anesthetic followed by exsanguination, and the lungs were lavaged using a cannula inserted into the trachea and instilling 1 ml of Hank's Buffer added with HEPES 10 mM and EDTA 10 mM three times. […] BAL were centrifuged at 200× g at 4°C for 10 min, and the cell-free supernatants were stored at −80°C for cytokine determination. Frozen cell-free BAL was analyzed for keratinocyte chemoattractant (CXCL-1/KC, the murine analogue of IL-8) release by using a commercial ELISA-assay (Invitrogen).

TRPA1 = target: T1, TRPA1 (Homo sapiens, UniProt O75762); test: Calcium imaging (Fura-2) of TRPA1 agonist responses in human airway/lung cells; format: cell-based; conditions: for effect of antagonist on calcium response evoked by CNM, ACR or CSE: A549 and IMR90; for effect of antagonist on calcium response evoked by CNM, ACR or CSE / effect of antagonist on calcium responses to CNM, ACR and CSE: antagonist 10 µM; for pEC50: intracellular calcium response
T1 construct: cultured human airway cells, including fibroblasts, epithelial and smooth muscle cells express functional TRPA1 channels; endogenous in cells; host or cells: SAEC, NHLF, HBSMC (Lonza, primary); A549, IMR90 (ATCC)
Description: Human small airway epithelial cells (SAEC), normal human lung fibroblasts (NHLF) and human bronchial smooth muscle cells (HBSMC) were purchased from Lonza. Human alveolar type II epithelium-like adherent cell line (A549) and human lung embryonic fibroblast (IMR90) were purchased from American Type Culture Collection (Manassas, VA). SAEC and NHLF were cultured respectively in SAGM and FBM medium (Lonza) according to the manufacturer's instructions. IMR90 and HBSMC were cultured in DMEM supplemented with 10% FBS, 2 mM glutamine, 100 U penicillin and 100 µg/ml streptomycin (Sigma-Aldrich), and A549 were cultured in RPMI supplemented with 10% FBS, 2 mM glutamine, 100 U penicillin, 100 µg/ml streptomycin and 1 mM HEPES (Sigma-Aldrich). All cells were cultured in an atmosphere of 95% air and 5% CO2 at 37°C.
CSE was generated as previously reported. Briefly, aqueous CSE was obtained from the combustion of four cigarettes (Marlboro Red, 12 mg of tar, 0.9 mg of nicotine each) bubbled through 50 ml of buffer and subsequently filtered through a 0.2-µm pore filter (Millipore). To ensure reproducibility among different CSE batches, the absorbance (optical density; OD) measured at 320 nm was used as a measure of the “strength” of the extract. Dilutions were made with buffer to obtain the desired absorbance. The CSE was freshly prepared on the day of the experiment and used immediately after preparation.
(§2) For calcium fluorescence measurements, cells were incubated with 5 µM Fura-2AM ester (Alexis Biochemicals) for 40 minutes at 37°C. Intracellular calcium levels were measured and recorded with a dynamic image analysis system (Laboratory Automation 2.0; RC Software). Fluorescence was measured during excitation at 340 and 380 nm, and after correction for the individual background fluorescence signals, the ratio of the fluorescence at both excitation wavelengths (Ratio340/380) was monitored. Experiments were performed using buffer solution containing (in mM): 150 NaCl, 6 KCl, 1 MgCl2, 1.5 CaCl2, 10 glucose, 10 HEPES at pH 7.4. Cells were stimulated with cinnamaldehyde (0.1–3000 µM), acrolein (0.1–3000 µM), CSE (0.001–0.5 OD), capsaicin (1 µM) and the activating peptide (SLIGKV-NH2) of the human PAR-2 receptor (hPAR-2 AP; 100 µM), or their respective vehicles (0.3% DMSO,aqueous buffer or 1% ethanol). HC-030031 and AP18 vehicles (used in all the in vitro experiments) were 3% DMSO and 1% DMSO, respectively. Results are expressed as the increase of Ratio340/380 over the baseline normalized to the maximum effect induced by ionomycin (5 µM) added at the end of the experiment.

PAR-2 receptor = target: T2, PAR-2 receptor (Homo sapiens, UniProt P55085); test: Calcium imaging, response to the PAR-2 activating peptide (selectivity control); format: cell-based; conditions: PAR-2 AP 100 µM; antagonist 10 µM
T2 construct: endogenous in cells
T2 sequence (P55085 26-397): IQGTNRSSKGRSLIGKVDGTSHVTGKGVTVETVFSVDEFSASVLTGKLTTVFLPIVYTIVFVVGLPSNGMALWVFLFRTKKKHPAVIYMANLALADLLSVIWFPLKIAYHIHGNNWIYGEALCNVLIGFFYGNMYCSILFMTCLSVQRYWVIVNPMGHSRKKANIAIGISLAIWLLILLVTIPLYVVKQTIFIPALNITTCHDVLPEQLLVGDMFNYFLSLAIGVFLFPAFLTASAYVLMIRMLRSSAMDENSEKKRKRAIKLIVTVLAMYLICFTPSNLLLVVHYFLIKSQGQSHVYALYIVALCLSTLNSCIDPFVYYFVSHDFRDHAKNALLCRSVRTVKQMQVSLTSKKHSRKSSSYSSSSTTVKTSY
Description: as §2

[3] = tested on: IL-8 release from SAEC, NHLF and HBSMC; test: IL-8 release from human airway/lung cells in primary culture, ELISA; format: cell-based; conditions: for effect of antagonist on CSE-evoked IL-8 release / effect of antagonist on IL-8 release induced by IL-1β or TNF-α / effect of antagonist on acrolein-evoked IL-8 release: HC-030031 30 µM, AP18 10 µM; for IL-8 release: overnight exposure
Description: For IL-8 ELISA assays, HBSMC, SAEC, and NHLF were seeded in complete culture medium in 48-well plates, grown to ∼80–90% confluence, and incubated overnight in serum-free medium before treatments. All the treatments were performed in serum free medium. Cells were pretreated with the selective TRPA1 antagonists, HC-030031 and AP18, or their vehicles, for 30–60 min before treatment with freshly prepared acrolein, CSE, TNF-α and IL-1β for 18 hours at 37°C with 5% CO2. Subsequently, supernatants were collected and stored at −80°C for ELISA assay. Human IL-8 was measured using a paired antibody quantitative ELISA kit (Invitrogen) (detection limit: 5 pg/ml). The assays were performed according to the manufacturer's instructions. Vitality assay method (MTT reduction assay) is available online as (Text S1).

T1 sequence (O75762 whole entry): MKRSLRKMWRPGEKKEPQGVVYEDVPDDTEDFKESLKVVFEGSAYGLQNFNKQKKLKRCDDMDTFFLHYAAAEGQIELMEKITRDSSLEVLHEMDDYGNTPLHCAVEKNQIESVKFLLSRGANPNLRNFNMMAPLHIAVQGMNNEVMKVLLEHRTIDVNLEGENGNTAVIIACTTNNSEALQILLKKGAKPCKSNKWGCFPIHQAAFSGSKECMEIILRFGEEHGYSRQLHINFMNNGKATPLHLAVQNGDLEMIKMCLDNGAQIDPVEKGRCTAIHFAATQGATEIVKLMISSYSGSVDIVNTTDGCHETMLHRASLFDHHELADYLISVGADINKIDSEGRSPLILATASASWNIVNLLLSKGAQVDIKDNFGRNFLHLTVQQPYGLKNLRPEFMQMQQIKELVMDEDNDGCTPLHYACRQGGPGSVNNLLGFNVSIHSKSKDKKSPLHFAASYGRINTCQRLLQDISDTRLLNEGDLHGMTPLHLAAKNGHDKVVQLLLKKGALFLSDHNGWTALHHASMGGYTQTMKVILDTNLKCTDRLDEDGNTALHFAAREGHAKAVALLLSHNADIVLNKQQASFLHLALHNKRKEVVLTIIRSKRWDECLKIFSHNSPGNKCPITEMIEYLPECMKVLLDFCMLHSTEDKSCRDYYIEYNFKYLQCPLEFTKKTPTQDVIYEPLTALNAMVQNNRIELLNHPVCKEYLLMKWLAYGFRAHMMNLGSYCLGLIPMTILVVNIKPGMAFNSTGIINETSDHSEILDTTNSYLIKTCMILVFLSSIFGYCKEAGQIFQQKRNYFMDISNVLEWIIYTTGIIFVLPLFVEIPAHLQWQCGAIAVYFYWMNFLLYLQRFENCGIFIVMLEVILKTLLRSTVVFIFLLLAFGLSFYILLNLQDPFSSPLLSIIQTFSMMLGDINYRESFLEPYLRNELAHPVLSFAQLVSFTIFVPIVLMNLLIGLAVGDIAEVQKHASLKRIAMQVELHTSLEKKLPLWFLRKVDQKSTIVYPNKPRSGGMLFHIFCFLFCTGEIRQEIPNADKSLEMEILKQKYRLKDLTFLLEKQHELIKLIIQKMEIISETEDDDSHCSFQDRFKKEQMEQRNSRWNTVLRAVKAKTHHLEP

Oc1cc2c(cc1O)CN(C(=S)NCCc1ccc(Cl)cc1)CCC2 [capsazepine]
effect on SP (25 nM)- and capsaicin (100 µM)-evoked Evans blue dye extravasation (PPE) [1]: prevented

COc1cc(CNC(=O)CCCC/C=C/C(C)C)ccc1O [capsaicin]
calcium response (TRPV1): failed to produce any visible calcium response
plasma protein extravasation (PPE) after instillation into the tracheal lumen [1]: increased PPE
KC in BAL 24 hours after intratracheal instillation ([2]; C57BL/6 mice): failed to increase

C=C(C)[C@]12C[C@@H](C)[C@@]34O[C@](Cc5ccccc5)(O[C@@H]1[C@@H]3C=C(COC(=O)Cc1ccc(O)c(OC)c1)C[C@]1(O)C(=O)C(C)=C[C@@H]41)O2 [RTX, resiniferatoxin]
acrolein-induced PPE after desensitization ([1]; RTX 50 µg/kg s.c., 7 days before, ACR 5 mM i.t.): completely abolished
acrolein-induced increase in KC in BAL fluid after desensitization ([2]; RTX 50 µg/kg s.c., 7 days before, ACR 5 mM i.t., C57BL/6 mice): remained unchanged

FC(F)(F)c1cc(CO[C@H]2CCCN[C@H]2c2ccccc2)cc(C(F)(F)F)c1 [L-733,060]
effect on acrolein (5 mM, i.t.)- and CSE (1 OD, i.t.)-evoked increase in PPE [1]: prevent
effect on SP (25 nM)- and capsaicin (100 µM)-evoked Evans blue dye extravasation (PPE) [1]: prevented
effect of pretreatment on KC release evoked by acrolein or CSE ([2]; C57BL/6 mice): failed to reduce

CC(=C\c1ccc(Cl)cc1)/C(C)=N/O [AP18]
effect of antagonist on calcium response evoked by CNM, ACR or CSE (TRPA1): abolished
effect of antagonist on calcium responses to CNM, ACR and CSE (TRPA1; SAEC, NHLF, HBSMC): prevented
effect of antagonist on calcium response to the PAR-2 activating peptide (PAR-2 receptor): did not affect
effect of antagonist on CSE-evoked IL-8 release [3]: reduced
effect of antagonist on IL-8 release induced by IL-1β or TNF-α [3]: not affected
effect of antagonist on acrolein-evoked IL-8 release [3]: significantly reduced

O=C/C=C/c1ccccc1 [Cinnamaldehyde, cinnamaldehyde]
pEC50 (TRPA1; A549): 4.96
pEC50 (TRPA1; HBSMC): 5.17
pEC50 (TRPA1; IMR90): 5.57
pEC50 (TRPA1; NHLF): 5.18
pEC50 (TRPA1; SAEC): 4.33
IL-8 release [3]: release IL-8

C=CC=O [Acrolein, acrolein]
pEC50 (TRPA1; A549): 5.14
pEC50 (TRPA1; HBSMC): 5.20
pEC50 (TRPA1; IMR90): 5.54
pEC50 (TRPA1; NHLF): 5.36
pEC50 (TRPA1; SAEC): 4.24
plasma protein extravasation (PPE) after instillation into the tracheal lumen [1]: increased PPE
KC release in Trpa1-/- mice ([2]; 5 mM i.t., Trpa1-/- mice (C57BL/6)): completely absent
KC in BAL 24 hours after intratracheal instillation ([2]; C57BL/6 mice): significantly increased
IL-8 release [3]: concentration-dependent IL-8 release

CC(C)c1ccc(NC(=O)Cn2cnc3c2c(=O)n(C)c(=O)n3C)cc1 [HC-030031]
effect of antagonist on calcium response evoked by CNM, ACR or CSE (TRPA1): abolished
effect of antagonist on calcium responses to CNM, ACR and CSE (TRPA1; SAEC, NHLF, HBSMC): prevented
effect of antagonist on calcium response to the PAR-2 activating peptide (PAR-2 receptor): did not affect
effect on acrolein (5 mM, i.t.)- and CSE (1 OD, i.t.)-evoked increase in PPE [1]: prevent
effect of pretreatment on KC release evoked by acrolein or CSE ([2]; C57BL/6 mice): significantly reduced
effect of antagonist on CSE-evoked IL-8 release [3]: reduced
effect of antagonist on IL-8 release induced by IL-1β or TNF-α [3]: not affected
effect of antagonist on acrolein-evoked IL-8 release [3]: significantly reduced

substance P (RPKPQQFFGLM-NH2; ends and bridges not checked; UniProt P20366 58-68, looked up) [SP, neuropeptide tachykinin released from sensory nerve terminals]
plasma protein extravasation (PPE) after instillation into the tracheal lumen [1]: increased PPE
KC in BAL 24 hours after intratracheal instillation ([2]; C57BL/6 mice): failed to increase
